Assay results: PMC3069973, “A Fungal Metabolite Asperparaline A Strongly and Selectively Blocks Insect Nicotinic Acetylcholine Receptors: The First Report on the Mode of Action” (PLoS ONE, 2011)

Tests used:
[1] = tested on: T1, nicotinic acetylcholine receptor (native nAChRs of silkworm larval brain neurons, subunits not identified); assay: whole-cell patch-clamp, agonist concentration-response; type: cell-based, Bombyx mori
T1 construct: native receptors in cultured larval brain neurons

[2] = tested on: T1, nicotinic acetylcholine receptor (native nAChRs of silkworm larval brain neurons, subunits not identified); assay: whole-cell patch-clamp, block of peak ACh-induced current (slowly desensitizing current IC50 […]); type: cell-based, Bombyx mori
[3] = target: T2, α3β4 nicotinic acetylcholine receptor (Gallus gallus, UniProt P09481+P26153); assay: two-electrode voltage-clamp, weak block:[…] reduction of the ACh response at […]; type: cell-based
T2 construct: gene CHRNA3; chicken α3β4 nAChR expressed in Xenopus laevis oocytes; with nAChR β4 subunit
T2 sequence (P09481 23-496): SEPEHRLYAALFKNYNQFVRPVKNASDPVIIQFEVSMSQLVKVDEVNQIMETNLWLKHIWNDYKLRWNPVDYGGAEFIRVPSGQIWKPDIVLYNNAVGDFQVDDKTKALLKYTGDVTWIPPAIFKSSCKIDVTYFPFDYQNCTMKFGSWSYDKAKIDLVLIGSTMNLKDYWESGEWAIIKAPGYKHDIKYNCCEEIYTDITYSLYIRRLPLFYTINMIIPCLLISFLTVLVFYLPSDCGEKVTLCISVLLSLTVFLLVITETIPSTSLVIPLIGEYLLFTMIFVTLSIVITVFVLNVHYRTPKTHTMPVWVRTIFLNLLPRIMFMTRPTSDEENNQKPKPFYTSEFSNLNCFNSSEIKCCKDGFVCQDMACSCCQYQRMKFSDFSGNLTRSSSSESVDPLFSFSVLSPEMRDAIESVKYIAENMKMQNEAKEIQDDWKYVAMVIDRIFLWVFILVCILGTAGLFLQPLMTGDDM
T2 sequence (P26153 4-470): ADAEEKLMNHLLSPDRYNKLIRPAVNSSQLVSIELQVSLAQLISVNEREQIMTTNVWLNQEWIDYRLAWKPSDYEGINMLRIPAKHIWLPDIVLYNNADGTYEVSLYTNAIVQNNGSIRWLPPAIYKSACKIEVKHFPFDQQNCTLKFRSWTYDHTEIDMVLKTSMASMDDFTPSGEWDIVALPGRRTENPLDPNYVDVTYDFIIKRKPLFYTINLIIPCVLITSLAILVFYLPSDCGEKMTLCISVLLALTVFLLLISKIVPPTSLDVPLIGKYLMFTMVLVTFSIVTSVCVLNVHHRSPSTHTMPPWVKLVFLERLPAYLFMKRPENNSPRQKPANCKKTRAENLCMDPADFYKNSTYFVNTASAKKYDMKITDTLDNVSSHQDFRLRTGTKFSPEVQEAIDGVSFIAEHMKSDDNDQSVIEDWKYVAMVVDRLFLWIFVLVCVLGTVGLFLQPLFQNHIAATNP

[4] = target: T3, L-glutamate-gated chloride channel (native, silkworm larval brain neurons, subunits not identified) (Bombyx mori, UniProt V9P9S1); assay: whole-cell patch-clamp, agonist-evoked current at […] (stated to be close to EC50); type: cell-based
T3 construct: native receptors in cultured larval brain neurons
T3 sequence (V9P9S1 25-446): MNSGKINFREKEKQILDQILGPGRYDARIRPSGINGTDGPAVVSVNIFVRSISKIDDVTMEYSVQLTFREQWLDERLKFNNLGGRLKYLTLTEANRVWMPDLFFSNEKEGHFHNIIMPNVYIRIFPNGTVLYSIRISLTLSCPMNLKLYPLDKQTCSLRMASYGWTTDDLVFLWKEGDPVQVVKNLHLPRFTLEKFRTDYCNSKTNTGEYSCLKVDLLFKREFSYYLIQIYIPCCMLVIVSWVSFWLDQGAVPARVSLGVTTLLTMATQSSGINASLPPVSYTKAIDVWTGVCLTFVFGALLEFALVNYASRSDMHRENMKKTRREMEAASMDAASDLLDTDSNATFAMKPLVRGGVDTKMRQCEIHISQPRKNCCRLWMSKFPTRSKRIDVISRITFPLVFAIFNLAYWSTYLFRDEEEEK

C[C@H]1CCN2C[C@]34C[C@]5(CC(=O)N(C)C5=O)C(C)(C)[C@@H]3C[C@]12C(=O)N4C [asperparaline A]
IC50 [2]: 0.0202 µM
inhibition at 10 µM [3]: 33.4%

N[C@@H](CCC(=O)O)C(=O)O [L-glutamate]
EC50 [4]: ~ 30 µM
